Like-named read-outs stand apart in the source and are kept apart here. Ends that are not written are not given here.
B1: HBV30K: lead 30 epitope HBV CTL vaccine epigene construct, SEQ ID NO: 71/72 (nucleic acid)
DNA: ATGGGAATGCAGGTGCAAATACAGTCTCTCTTCCTTTTGCTTCTCTGGGTTCCAGGATCACGGGGCTTCTTGCTTAGCTTGGGCATCCACCTAAATGCTGCTGCAAAATACACATCTTTTCCTTGGCTCCTTAATGCCGCCGCTAGGTTTTCATGGCTGAGTCTGCTAGTACCTTTCAATGCGGCTTTCCCACATTGCCTAGCTTTTAGCTATATGAAAGCTGCTTTAGTCGTGGACTTTTCACAGTTTAGCAGAGGAGCAATCCTGCTGCTATGTCTGATATTCCTTCTAAACGCAGCAGCCCACACACTCTGGAAAGCTGGTATCCTTTACAAGAAAGCCTGGATGATGTGGTATTGGGGACCCAGCCTCTACAAAGCATACCCTGCCCTGATGCCACTATACGCATGCATTGGCGCGGCAGCCTGGTTATCCCTTTTAGTACCGTTTGTCAACGCCGCAGCGGGATTTCTATTAACCAGAATCCTGACGATTAATGCTGCCGCCATTCCGATCCCAAGTTCCTGGGCATTCAAAGCAGCCGCGGAGTATCTGGTTTCATTTGGCGTATGGAACCTGCCAAGCGACTTCTTTCCTTCTGTTAAGGCCGCTGCTTTCCTCCCCTCCGATTTCTTTCCATCGGTGAAAGCCGCTGCCGACCTCCTTGATACCGCGAGCGCTCTGTACAACTCGTGGCCAAAATTCGCAGTTCCAAACCTAAAAGCCGCCGCCAGTGCCATTTGTTCCGTGGTAAGGAGAAAATTATCACTCGACGTGTCCGCAGCATTTTATAACGCTGCTGCAAAGTTTGTCGCAGCATGGACATTGAAGGCTGCAGCGAAAGCAGCAAATGTATCAATACCCTGGACCCACAAGGGTGCAGCCGGGCTGTCTAGGTATGTGGCGAGGCTAAACGCCGCCGCCTCAACACTGCCTGAGACTACTGTCGTGAGACGCAAACACCCTGCCGCAATGCCCCACCTGCTGAAAGCAGCCGCACGATGGATGTGCCTCAGAAGATTCATAATAAACGCTTCTTTCTGTGGGTCACCCTACAAAGCCGCTTACATGGACGATGTGGTCCTCGGAGTGAATGCCCTCTGGTTCCATATCAGCTGCCTGACATTCAAGGCAGCCGCCACCCCCGCTCGTGTGACAGGAGGTGTCTTCAAAGCCGCGGCACTGACTTTCGGTCGGGAAACTGTATTGGAATATAAGCAGGCCTTCACATTCTCCCCAACATACAAGTGA
modifications: Hepatitis B Virus

Legend:
HLA transgenic mice = test: CTL priming in HLA transgenic mice after DNA immunization (in situ IFNγ ELISA or chromium release)
HLA supertype alleles = type: binding, human
HLA-A2 transgenic mice = test: IFN-γ ELISPOT CTL responses after DNA immunization; type: in vivo, mouse; conditions: mice immunized with GCR-5835
[1] = tested on: PBL from individuals with acute or chronic HBV infection; conditions: independently reported (Sobao et al. 2001); cited from earlier work
H2^bxd mice = test: CTL response after peptide/IFA immunization, in situ ELISA; type: in vivo, mouse; conditions: peptide/IFA immunization of H2^bxd mice
HLA-A*0101 = HLA-A*0101 (Homo sapiens, UniProt P04439, A114D/A174V/A182V/D101N/D185E/E176A/E190D/L180R/Q94H/R68K/S129P/T187R/V100A/V91M/W191G); test: HLA class I peptide binding assay (purified HLA, IC50)
[2] = A2, A3 or B7 supertype, five most common members
[3] = A1 or A24 supertype, three related alleles

Molecule	XRN (number of supertype alleles bound ≦500 nM) (HLA supertype alleles; [2])	IC50 (HLA-A*0101) [nM]	XRN (number of supertype alleles bound ≦500 nM) (HLA supertype alleles; [3])	other results
CC[C@H](C)[C@H](NC(=O)[C@@H](NC(=O)[C@H](CC(C)C)NC(=O)[C@@H](NC(=O)[C@H](CCCNC(=N)N)NC(=O)[C@@H](NC(=O)[C@H](CC(C)C)NC(=O)[C@H](CC(C)C)NC(=O)[C@@H](N)Cc1ccccc1)[C@@H](C)O)[C@@H](C)CC)[C@@H](C)O)C(=O)O [env 183]	4	–	–	Immunogenicity of the epitope in construct HBV30C (HLA transgenic mice; mouse, in vivo): poorly immunogenic
CC(C)C[C@H](NC(=O)[C@H](CO)NC(=O)[C@H](CC(C)C)NC(=O)[C@@H](N)Cc1c[nH]c2ccccc12)C(=O)N[C@@H](CC(C)C)C(=O)N[C@H](C(=O)N1CCC[C@H]1C(=O)N[C@@H](Cc1ccccc1)C(=O)N[C@H](C(=O)O)C(C)C)C(C)C [env 335]	4	–	–	Primary ELISPOT response (HLA-A2 transgenic mice): approximately 100 SFC/10^6 CD8+ cells
CC(C)C[C@H](NC(=O)[C@H](CC(C)C)NC(=O)[C@H](Cc1c[nH]c2ccccc12)NC(=O)[C@@H]1CCCN1C(=O)[C@H](Cc1ccccc1)NC(=O)[C@H](CO)NC(=O)[C@@H](NC(=O)[C@H](Cc1ccc(O)cc1)NC(=O)[C@@H](N)CCCCN)[C@@H](C)O)C(=O)O [pol 745]	–	–	–	Recognition by CTL from HBV-infected individuals [1]: recognized by CTL from HBV-infected individuals; Murine Immunogenicity (SU) (H2^bxd mice): 158.7 SU
H-YSLNFMGY-OH [pol 580]	–	382	3	–
LTFGRETVLEY [core 137]	–	80	3	–
B1	–	–	–	CTL responses induced by the construct (in words) (HLA transgenic mice; HLA transgenic mice (HLA-A2, -A3/A11; H2^bxd for A24)): CTL responses as vigorous as HBV2
